Measurements: patent US4091006A, “Esters of 3-hydroxyindone compounds” (priority 1975, dated 1978)
Converted amounts (≈) assume the structure as drawn.

What was measured:
[1] = test system: eggs of the two-spotted mite; experiment: Fumigant toxicity, Method 1 (deposit in pie plate); type: in vivo; conditions: deposit approx. 160 μg per square cm, 4 days
Procedure: (§1) Two methods were used to evaluate fumigant properties:
Method 1: Fifty mg. of each compound were dissolved in 5 ml. of acetone and poured into a 20 cm. (bottom diameter) Pyrex No. 210 pie plate. The acetone was allowed to evaporate leaving a deposit of approximately 160 μg. per square cm. The plate was then placed in the bottom of a 50 pound metal lard container (about 30 cm. in diameter and 34 cm. high). Two excised bean plants, held in a 250 ml. Erlenmeyer flask containing 100 ml. of tap water and infested with eggs of the two-spotted mite, were placed in the center of the pie plate. The container was held in the insectary (temperature 80±5° F., 50±5% R. H.) for four days before mortality determinations were made.

Mite Adults = experiment: whole plant or invertebrate
Procedure: Adults and nymphal stages of the two-spotted mite (tetranychus urticae (Koch)), reared on Tendergreen bean plants at 80±5° F. and 50±5 percent relative humidity, were the test organisms. Infested leaves from a stock culture were placed on the primary leaves of two bean plants 6 to 8 inches in height, growing in a 21/2 inch clay pot. 150-200 Mites, a sufficient number for testing, transferred from the excised leaves to the fresh plants in a period of 24 hours. Following the 24 hour transfer period, the excised leaves were removed from the infested plants. The test compounds were formulated by diluting the stock suspension with water to provide suspensions containing the desired amount of test compound per million parts of final formulation. The potted plants (one pot per compound) were placed on a revolving turntable and sprayed with 100-110 milliliters of test compound formulation by use of a DeVilbis spray gun set at 40 psi. air pressure. This application, which lasted 30 seconds, was sufficient to wet the plants to run-off. As a control, 100-110 milliliters of a water solution containing acetone and emulsifier in the same concentrations as the test compound formulation, but containing no test compound, were also sprayed on infested plants. The sprayed plants were held at 80±5° F. and 50±5 percent relative humidity for 4 days, after which, a mortality count of motile forms was made. Microscopic examination for motile forms was made on the leaves of the test plants. Any individual which was capable of locomotion upon prodding was considered living.
(§2) Side by side comparison tests were conducted to determine the effectiveness of selected enol ester compounds relative to (bis(p-chlorophenyl)trichlorethanol) a miticide sold under the trademark Kelthane and ovex (p-chlorophenyl-p-chlorobenzene sulfonate) two widely used commercial miticides.

two-spotted mite = experiment: Small scale field tests, mite control on Tendergreen bean plants; type: in vivo, Tetranychus urticae (Koch); conditions: for Average mite control rating, 3rd Reading: 21 days
Procedure: Selected enol ester compositions were evaluated in small scale field tests to determine whether the excellent miticidal properties observed in greenhouse testing would be obtained under actual conditions of field use.
In Test I 500 ppm aqueous dispersions were prepared as described above. In tests II and III various dilutions of the test compounds ranging from 125 ppm to 1000 ppm were prepared and used. In each case the test dispersions were applied to a minimum of two replicate test plots measuring five feet in length and containing healthy young Tendergreen bean plants which had previously been infested with two-spotted mite (Tetranychus urticae (Koch)). Dispersions of the test compounds at each concentration level were applied to individual replicate plots using 1/2 gallon garden sprayers equipped with spray nozzles to apply approximately 250 ml. of test solution to each replicate. The effectiveness of the treatment was determined at intervals following application, by microscopic examination of five leaves selected at random from each replicate plot. The degree of effectiveness for each leaf was rated on a scale of from 1 to 5 with 1 indicating no control in reference to a standard sprayed with a mixture of solution less test compound and 5 indicating complete control. The results obtained from inspection of sample leaves were then averaged to give a numerical indication of the degree of control for each compound tested at the concentration applied.

[2] = test system: adults and nymphal stages of the two-spotted mite; experiment: Mite Foliage Spray Test; type: in vivo, Tetranychus urticae (Koch); conditions: 4 days
Source text: (§3) The test procedures were as follows:
(§4) Compositions were rated on the basis of percent kill with a rating of 1 indicating no mortality; 3 signifying an approximately 50% mortality and 5 indicating 100% mortality at the indicated dosage.

[3] = test system: egg of the two-spotted mite; experiment: Mite Ovicide Test; type: in vivo, Tetranychus urticae (Koch); conditions: spray on eggs, 4 days
Source text: as §3
The plants were allowed to dry thoroughly.
as §4

Corn = experiment: Phytotoxicity, corn; conditions: 2500 ppm, 10 days
Procedure: (§5) Experiments were also conducted to determine the phytotoxicity of representative enol ester compositions with respect to healthy fresh plants. […] The test plants were sprayed in accordance with the procedure described above for the Mite Foliage Spray Test so as to deliver approximately 100 milliliters of test solution to the leaves of each plant tested. The sprayed plants and controls were set aside for approximately 1 hour to allow the solutions to dry and were then placed in the greenhouse. After 10 days the plants were visually inspected to determine the extent of foliage injury. A rating of 1 indicates no perceptible injury; 5 indicates the plant was dead and ratings of 2, 3 and 4 indicate intermediate degrees of injury based upon the number and extent to which leaves were injured.

Cotton = experiment: Phytotoxicity, cotton; conditions: 2500 ppm, 10 days
Procedure: as §5

[4] = test system: egg forms of the two-spotted mite; experiment: Fumigant toxicity, Method 2 (treated plants near untreated infested plants); type: in vivo; conditions: 500 ppm dip, 4 days
Procedure: as §1
Method 2: Excised bean plants infested with egg forms of the two-spotted mite were dipped in an aqueous preparation (500 ppm) of the test compound. The treated plants were transferred to 250 ml. Erlenmeyer flasks containing 100 ml. of tap water. Four flasks holding treated plants were evenly spaced around a similar flask in which were placed untreated mite-infested plants so that the leaves of the treated foliage were in close proximity (1-3 inches) to the untreated plants. Four days later mortality determinations were made.

[5] = test system: Perennial rye grass, crabgrass, red root pigweed, mustard; experiment: Preliminary Herbicide Seed Germination Test; conditions: rating/maximum 40: 100 and 1000 ppm, four species, each rated 1 (no injury) to 5 (no seedlings emerged), 10-12 days
Source text: The thus-prepared stock suspension contained 0.5 percent by weight of compound. The test concentrations employed in the tests described hereinbelow were obtained by diluting the stock suspension with water. The test procedures were as follows:
The following seeds were used in this test:
Crabgrass -- Digitaria san-
Mustard -- Brassica pincea var.
Each of above mixtures is rolled separately in 5 gallon containers for approximately one-half hour on ball mill to insure uniform mixing of seeds and soil. For each compound four 3-inch pots are filled with soil to within 11/2 inches of top of pots. To 2 of these pots are added 70 cc. of Mixture I. To the remaining 2 pots are added 70 cc. of Mixture II. The seed-soil mixture is tamped firmly, and the pots are removed to the greenhouse and watered lightly. About 2 hours after planting, 25 milliliters of the test formulation were added to each of 2 pots for each soil-seed mixture; i.e., one replicate of each seed mixture per concentration. An equal volume of a water solution containing acetone and an emulsifier in the same concentration as the herbicidal mixture but without the candidate herbicide is also added to each of the soil-seed mixtures. These pots are used as check or control units. The test compounds are formulated by standard procedure of solution in acetone, addition of an emulsifier, and dilution with water. Tests were conducted on all compositions at low concentration (100 ppm.). Certain compositions were also tested at high concentration (1000 ppm). The pots were held in the greenhouse and watered lightly until results were taken. Ten to twelve days after application of chemical, injury is noted for each species by comparing treated vs. untreated pots. Ratings are made at both the high and the low concentrations (1000 ppm and 100 ppm) according to the following designations:
4 = few seedlings emerged and/or very severe stunting
3 = moderate reduction in stand and/or moderate stunting
2 = very slight reduction in stand and/or slight stunting
1 = no injury; seedlings appear no different with respect to stand or growth than untreated controls
Accordingly, the maximum rating for one test seed species tested at both high and low concentration is 10 and the maximum possible total preemergence rating is 40 (10 for each of the four test seed species). […] In some tests the crabgrass experiment was omitted. In these tests the maximum total rating for species tested at both high and low concentrations is 30 and 15 for species tested only at low concentrations.

Mite Ova = experiment: whole plant or invertebrate
Procedure: The test organism was the egg of the two-spotted mite (Tetranychus urticae (Koch)), as obtained from adults reared on Tendergreen bean plants under controlled conditions of 80±5° F. and 50±5 percent relative humidity. Heavily infested leaves from a stock culture were placed on the primary leaves of two bean plants 6 to 8 inches in height, growing in a 21/2 inch clay pot. Females were allowed to oviposit for a period of 48 hours and then the leaves of the infested plants were dipped in a solution containing 800 parts of tetraethyl pyrophosphate per million parts of water in order to destroy the reproductory forms and thus prevent further egg laying. […] The plants were allowed to dry thoroughly. […] The potted plants (one pot per compound) were placed on a revolving turntable and sprayed with 100-110 milliliters of test compound formulation by use of a DeVilbis spray gun set at 40 psig. air pressure. This application, which lasted 30 seconds, was sufficient to wet the plants to run-off. As a control, 100-110 milliliters of a water solution containing acetone and emulsifier in the same concentrations as the test compound formulation, but containing no test compound, were also sprayed on plants infested with eggs. The sprayed plants were held at 80±5° F. and 50±5 percent relative humidity for 4 days, after which a microscopic examination was made of unhatched (dead) and hatched (living) eggs.
as §2

Tomato = experiment: Phytotoxicity, tomato; conditions: 2500 ppm, 10 days
Procedure: as §5

Bean = experiment: Phytotoxicity, bean; conditions: 2500 ppm, 10 days
Procedure: as §5

[6] = concentration to kill 95 percent

`Cc1cc(C)c(C2=C(OC(=O)C(C)(C)C)c3ccccc3C2=O)c(C)c1` [2-(2',4',6'-Trimethylphenyl)-3-(pivaloyloxy)indone] was tested, and the “Fumigant Toxicity Method 1” value [1] was 5 (80-100% control), the LC50 (Mite Adults; Tetranychus urticae, read-out: Mite Adults LD50) was 5 µg/mL (≈ 14.3 µM) and the “Mite Adults LD95” value (Mite Adults; [6]) was 170 ppm. The “Average mite control rating, 1st Reading” value (two-spotted mite; Test I, 500 ppm, 4 days, scale 1 (no control) to 5 (complete control)) was 4.0, the “Average mite control rating, 2nd Reading” value (two-spotted mite; Test I, 500 ppm, 8 days, scale 1 to 5) was 3.5 and the “Average mite control rating, 1st Reading” value (two-spotted mite; Test II, 250 ppm, 3 days, scale 1 to 5) was 3.0. For the same molecule, the “Average mite control rating, 2nd Reading” value (two-spotted mite; Test II, 250 ppm, 7 days, scale 1 to 5) was 4.0, the “Average mite control rating, 1st Reading” value (two-spotted mite; Test II, 500 ppm, 3 days, scale 1 to 5) was 2.3 and the “Average mite control rating, 2nd Reading” value (two-spotted mite; Test II, 500 ppm, 7 days, scale 1 to 5) was 4.7. For the same molecule, the “Average mite control rating, 1st Reading” value (two-spotted mite; Test III, 125 ppm, 3 days, scale 1 to 5) was 1.7, the “Average mite control rating, 2nd Reading” value (two-spotted mite; Test III, 125 ppm, 7 days, scale 1 to 5) was 2.3 and the “Average mite control rating, 3rd Reading” value (two-spotted mite; Test III, 125 ppm, scale 1 to 5) was 1.7. The “Average mite control rating, 1st Reading” value (two-spotted mite; Test III, 250 ppm, 3 days, scale 1 to 5) was 3.0, the “Average mite control rating, 2nd Reading” value (two-spotted mite; Test III, 250 ppm, 7 days, scale 1 to 5) was 4.0 and the “Average mite control rating, 3rd Reading” value (two-spotted mite; Test III, 250 ppm, scale 1 to 5) was 3.7. The “Average mite control rating, 1st Reading” value (two-spotted mite; Test III, 500 ppm, 3 days, scale 1 to 5) was 3.0, the “Average mite control rating, 2nd Reading” value (two-spotted mite; Test III, 500 ppm, 7 days, scale 1 to 5) was 4.0 and the “Average mite control rating, 3rd Reading” value (two-spotted mite; Test III, 500 ppm, scale 1 to 5) was 4.5. For the same molecule, the “Mite Adult rating” value [2] was 5 (100% mortality), the “Mite Ova rating” value [3] was 5 (100% mortality) and the “Phytotoxicity Rating, Corn” value (Corn) was 3. For the same molecule, the “Phytotoxicity Rating, Cotton” value (Cotton) was 3, the “Fumigant Toxicity Method 2” value [4] was 5 (80-100% control) and the “Herbicide (total preemergence rating)” value [5] was 32/40. The LC50 (Mite Ova; Tetranychus urticae, read-out: Mite Ova LD50) was 3 µg/mL (≈ 8.61 µM), the “Mite Ova LD95” value (Mite Ova; [6]) was 9 ppm and the “Phytotoxicity Rating, Tomato” value (Tomato) was 3. The “Phytotoxicity Rating, Bean” value (Bean) was 1.
